# Experimental data reported in publication PMC7774954, “Interactomic affinity profiling by holdup assay: Acetylation and distal residues impact the PDZome-binding specificity of PTEN phosphatase” (PLoS ONE, 2020).
# *1 amine or outer side, *2 acyl side, *3 side chain or, on linkers, in order; H or OH if unused. Where a SMILES comes first, the peptide text is derived from it. The star is where a group is joined. X1 = O=C(CCCC[C@@H]1SC[C@@H]2NC(=O)N[C@@H]21)NCCCOCCOCCOCCCN*; Suc = O=C(CCC(=O)[*:2])[*:1]
# How the values were obtained:
# [1] = target: T1, DLG3-2 (Homo sapiens, UniProt Q92796); test: Holdup assay, DLG3-2; assay type: binding
# T1 sequence (Q92796 244-330): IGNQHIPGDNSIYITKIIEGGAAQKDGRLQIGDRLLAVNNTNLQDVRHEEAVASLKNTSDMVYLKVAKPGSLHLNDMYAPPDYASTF
# [2] = target: INADL-7 (Homo sapiens, UniProt Q8NI35); test: Holdup assay, INADL-7; assay type: binding
# [3] = test system: DLG5-4; test: Holdup assay, DLG5-4; assay type: binding, human
# [4] = target: MAGI2-4 (Homo sapiens, UniProt Q86UL8); test: Holdup assay, MAGI2-4; assay type: binding
# [5] = target: T2, MAGI2 PDZ 3 (Homo sapiens, UniProt Q86UL8); test: Holdup assay, MAGI2-3; assay type: binding; conditions: for BI: MAGI2-3
# T2 construct: made in house; host or cells: E. coli
# Experimental: The holdup assay was performed on a Tecan freedom Evo200 robot with 384-well plates in singlicate for the three 11-mer PTEN variants and the 13-mer PTEN peptide as described in [31, 32]. Briefly, prior to interaction assay, 2.5 μL of streptavidin resin was saturated in each well with 20 μL of biotinylated PBM peptides (42 μM) and then washed twice with an excess of free biotin, while the reference resin was incubated only with biotin. Right before the holdup experiment, the PDZ library was spiked with an internal standard of lysozyme. Then, the biotin- or PBM-saturated resin was incubated, each in a distinct well of a 384-well plate, with complete cell lysates diluted so that the concentration of the tag-PDZ present in the crude extract is adjusted at 4 μM. After a sufficient time to reach complex equilibrium (15 min.), a fast and mild filtration step is performed and the tag-PDZ concentrations were measured by capillary electrophoresis instrument (LabChip GXII, PerkinElmer, Massachusets, USA). Standard markers were used to convert migration time into molecular weight on the LabChip software and inappropriate molecular weight markers were corrected or excluded.
# For filtered data, the BI was extracted with the following equation (Eq 1) that estimates the depleted fraction after superimposition of the sample and reference electropherograms: BI=Iref−Ilig/Iref (1) where Iref and Ilig are the intensities of the tag-PDZ peaks measured, for each PDZ domain/PBM peptide interaction pair, in the biotin reference and the PBM electropherograms, respectively.
# BIs were transformed into dissociation constants (KD) using the following formula: KD=([PDZtot]−BI·[PDZtot])·([PBMtot]−BI·[PDZtot])/BI·[PDZtot] (2) where [PDZtot] and [PBMtot] correspond to the total concentrations of the PDZ domain (usually around 4 μM) and the PBM peptide used during the assay. Since the PBMtot concentration in the resin during the holdup assay parameter may differ from one peptide to another and remains unknown, it is impossible to directly convert BI values into KD constants. We systematically determined the KD constants for a subset of PDZ/PBM pairs by competitive FP. […] For each PBM, the average peptide concentration was calculated after outlier rejection based on the absolute distances from the median as compared to three times the standard deviation (3σ rule), with never more than 2 values rejected.
# [6] = target: T3, MAGI3-6 (Homo sapiens, UniProt Q5TCQ9); test: Holdup assay, MAGI3-6; assay type: binding
# T3 sequence (Q5TCQ9 1-1481): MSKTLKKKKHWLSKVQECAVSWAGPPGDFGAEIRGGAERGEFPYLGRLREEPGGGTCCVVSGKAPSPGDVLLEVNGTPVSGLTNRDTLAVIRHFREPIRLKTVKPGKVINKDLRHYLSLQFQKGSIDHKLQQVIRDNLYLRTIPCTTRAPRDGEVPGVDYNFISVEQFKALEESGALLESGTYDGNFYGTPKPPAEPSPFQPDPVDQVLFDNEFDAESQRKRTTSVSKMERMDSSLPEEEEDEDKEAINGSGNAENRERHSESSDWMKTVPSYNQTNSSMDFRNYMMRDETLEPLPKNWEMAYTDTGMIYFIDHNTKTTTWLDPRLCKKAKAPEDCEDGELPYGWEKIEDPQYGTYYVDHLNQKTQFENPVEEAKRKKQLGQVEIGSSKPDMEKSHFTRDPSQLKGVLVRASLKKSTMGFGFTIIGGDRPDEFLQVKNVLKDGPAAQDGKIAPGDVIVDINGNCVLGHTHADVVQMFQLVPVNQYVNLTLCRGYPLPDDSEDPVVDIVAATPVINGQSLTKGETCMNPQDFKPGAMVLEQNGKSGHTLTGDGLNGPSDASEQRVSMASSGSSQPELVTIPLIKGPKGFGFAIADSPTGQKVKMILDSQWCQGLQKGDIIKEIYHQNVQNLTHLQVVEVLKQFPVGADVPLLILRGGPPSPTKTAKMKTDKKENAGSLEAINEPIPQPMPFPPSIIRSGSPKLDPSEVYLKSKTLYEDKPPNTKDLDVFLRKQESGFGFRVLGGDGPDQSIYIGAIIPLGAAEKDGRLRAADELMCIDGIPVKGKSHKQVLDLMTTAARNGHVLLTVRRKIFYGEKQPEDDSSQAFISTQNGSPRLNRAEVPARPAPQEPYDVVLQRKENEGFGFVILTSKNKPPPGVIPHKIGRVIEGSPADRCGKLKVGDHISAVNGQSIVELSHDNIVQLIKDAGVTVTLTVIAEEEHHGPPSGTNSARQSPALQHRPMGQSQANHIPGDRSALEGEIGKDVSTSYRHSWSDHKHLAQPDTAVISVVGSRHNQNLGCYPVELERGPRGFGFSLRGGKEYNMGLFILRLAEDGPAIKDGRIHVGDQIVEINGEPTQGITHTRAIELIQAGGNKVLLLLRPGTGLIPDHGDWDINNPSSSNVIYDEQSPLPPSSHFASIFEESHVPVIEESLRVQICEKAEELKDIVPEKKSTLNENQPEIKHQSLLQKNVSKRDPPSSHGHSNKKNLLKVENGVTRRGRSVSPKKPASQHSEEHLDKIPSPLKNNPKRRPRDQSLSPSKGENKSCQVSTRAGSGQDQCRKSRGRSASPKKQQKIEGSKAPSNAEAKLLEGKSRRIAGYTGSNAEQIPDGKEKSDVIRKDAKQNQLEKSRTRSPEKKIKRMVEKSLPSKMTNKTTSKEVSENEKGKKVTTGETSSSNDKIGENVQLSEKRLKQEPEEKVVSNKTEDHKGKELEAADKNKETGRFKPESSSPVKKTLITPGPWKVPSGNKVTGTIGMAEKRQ
# [7] = test system: GRIP1-5; test: Holdup assay, GRIP1-5; assay type: binding, human
# [8] = test system: MAGI1-1; test: Holdup assay, MAGI1-1; assay type: binding, human
# Chain of MAGI2-4 (Q86UL8 whole entry): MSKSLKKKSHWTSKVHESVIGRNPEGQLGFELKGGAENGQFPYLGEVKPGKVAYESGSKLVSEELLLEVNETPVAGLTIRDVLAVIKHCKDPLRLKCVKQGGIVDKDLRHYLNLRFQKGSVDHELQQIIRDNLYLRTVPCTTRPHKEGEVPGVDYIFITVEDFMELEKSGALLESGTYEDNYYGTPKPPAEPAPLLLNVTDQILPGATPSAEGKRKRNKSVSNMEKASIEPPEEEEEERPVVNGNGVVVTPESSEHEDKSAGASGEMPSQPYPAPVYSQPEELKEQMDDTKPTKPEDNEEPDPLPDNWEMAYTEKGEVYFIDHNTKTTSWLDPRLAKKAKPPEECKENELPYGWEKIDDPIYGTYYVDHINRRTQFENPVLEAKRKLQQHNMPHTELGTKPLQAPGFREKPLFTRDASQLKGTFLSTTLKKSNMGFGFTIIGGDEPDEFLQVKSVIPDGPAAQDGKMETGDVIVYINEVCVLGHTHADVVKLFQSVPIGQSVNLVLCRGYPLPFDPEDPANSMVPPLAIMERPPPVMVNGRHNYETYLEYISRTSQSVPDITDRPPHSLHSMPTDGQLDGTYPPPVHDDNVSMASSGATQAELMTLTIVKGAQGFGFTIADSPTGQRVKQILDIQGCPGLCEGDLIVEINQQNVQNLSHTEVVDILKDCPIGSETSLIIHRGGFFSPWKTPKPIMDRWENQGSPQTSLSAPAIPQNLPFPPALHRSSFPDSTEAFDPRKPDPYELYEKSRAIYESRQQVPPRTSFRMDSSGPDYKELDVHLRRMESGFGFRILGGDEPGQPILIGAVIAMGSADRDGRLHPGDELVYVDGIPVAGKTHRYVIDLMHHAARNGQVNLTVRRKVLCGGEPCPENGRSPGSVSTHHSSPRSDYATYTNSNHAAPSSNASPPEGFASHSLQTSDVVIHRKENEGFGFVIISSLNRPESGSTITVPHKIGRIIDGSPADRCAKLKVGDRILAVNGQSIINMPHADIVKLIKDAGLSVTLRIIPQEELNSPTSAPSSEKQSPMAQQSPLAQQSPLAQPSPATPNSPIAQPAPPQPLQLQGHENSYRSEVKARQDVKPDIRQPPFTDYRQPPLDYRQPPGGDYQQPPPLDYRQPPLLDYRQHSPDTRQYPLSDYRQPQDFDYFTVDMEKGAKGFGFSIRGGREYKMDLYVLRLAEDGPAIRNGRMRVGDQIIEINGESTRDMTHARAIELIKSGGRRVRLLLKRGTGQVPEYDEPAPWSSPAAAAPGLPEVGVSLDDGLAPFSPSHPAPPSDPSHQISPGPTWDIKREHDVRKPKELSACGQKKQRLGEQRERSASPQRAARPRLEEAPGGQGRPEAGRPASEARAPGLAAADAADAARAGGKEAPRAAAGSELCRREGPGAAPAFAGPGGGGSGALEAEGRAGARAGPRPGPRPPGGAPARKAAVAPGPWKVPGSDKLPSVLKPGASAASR
# T2 sequence (Q86UL8 605-683 limits assumed): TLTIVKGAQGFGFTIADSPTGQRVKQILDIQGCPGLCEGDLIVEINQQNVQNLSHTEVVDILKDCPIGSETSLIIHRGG
# Chain of INADL-7 (Q8NI35 whole entry): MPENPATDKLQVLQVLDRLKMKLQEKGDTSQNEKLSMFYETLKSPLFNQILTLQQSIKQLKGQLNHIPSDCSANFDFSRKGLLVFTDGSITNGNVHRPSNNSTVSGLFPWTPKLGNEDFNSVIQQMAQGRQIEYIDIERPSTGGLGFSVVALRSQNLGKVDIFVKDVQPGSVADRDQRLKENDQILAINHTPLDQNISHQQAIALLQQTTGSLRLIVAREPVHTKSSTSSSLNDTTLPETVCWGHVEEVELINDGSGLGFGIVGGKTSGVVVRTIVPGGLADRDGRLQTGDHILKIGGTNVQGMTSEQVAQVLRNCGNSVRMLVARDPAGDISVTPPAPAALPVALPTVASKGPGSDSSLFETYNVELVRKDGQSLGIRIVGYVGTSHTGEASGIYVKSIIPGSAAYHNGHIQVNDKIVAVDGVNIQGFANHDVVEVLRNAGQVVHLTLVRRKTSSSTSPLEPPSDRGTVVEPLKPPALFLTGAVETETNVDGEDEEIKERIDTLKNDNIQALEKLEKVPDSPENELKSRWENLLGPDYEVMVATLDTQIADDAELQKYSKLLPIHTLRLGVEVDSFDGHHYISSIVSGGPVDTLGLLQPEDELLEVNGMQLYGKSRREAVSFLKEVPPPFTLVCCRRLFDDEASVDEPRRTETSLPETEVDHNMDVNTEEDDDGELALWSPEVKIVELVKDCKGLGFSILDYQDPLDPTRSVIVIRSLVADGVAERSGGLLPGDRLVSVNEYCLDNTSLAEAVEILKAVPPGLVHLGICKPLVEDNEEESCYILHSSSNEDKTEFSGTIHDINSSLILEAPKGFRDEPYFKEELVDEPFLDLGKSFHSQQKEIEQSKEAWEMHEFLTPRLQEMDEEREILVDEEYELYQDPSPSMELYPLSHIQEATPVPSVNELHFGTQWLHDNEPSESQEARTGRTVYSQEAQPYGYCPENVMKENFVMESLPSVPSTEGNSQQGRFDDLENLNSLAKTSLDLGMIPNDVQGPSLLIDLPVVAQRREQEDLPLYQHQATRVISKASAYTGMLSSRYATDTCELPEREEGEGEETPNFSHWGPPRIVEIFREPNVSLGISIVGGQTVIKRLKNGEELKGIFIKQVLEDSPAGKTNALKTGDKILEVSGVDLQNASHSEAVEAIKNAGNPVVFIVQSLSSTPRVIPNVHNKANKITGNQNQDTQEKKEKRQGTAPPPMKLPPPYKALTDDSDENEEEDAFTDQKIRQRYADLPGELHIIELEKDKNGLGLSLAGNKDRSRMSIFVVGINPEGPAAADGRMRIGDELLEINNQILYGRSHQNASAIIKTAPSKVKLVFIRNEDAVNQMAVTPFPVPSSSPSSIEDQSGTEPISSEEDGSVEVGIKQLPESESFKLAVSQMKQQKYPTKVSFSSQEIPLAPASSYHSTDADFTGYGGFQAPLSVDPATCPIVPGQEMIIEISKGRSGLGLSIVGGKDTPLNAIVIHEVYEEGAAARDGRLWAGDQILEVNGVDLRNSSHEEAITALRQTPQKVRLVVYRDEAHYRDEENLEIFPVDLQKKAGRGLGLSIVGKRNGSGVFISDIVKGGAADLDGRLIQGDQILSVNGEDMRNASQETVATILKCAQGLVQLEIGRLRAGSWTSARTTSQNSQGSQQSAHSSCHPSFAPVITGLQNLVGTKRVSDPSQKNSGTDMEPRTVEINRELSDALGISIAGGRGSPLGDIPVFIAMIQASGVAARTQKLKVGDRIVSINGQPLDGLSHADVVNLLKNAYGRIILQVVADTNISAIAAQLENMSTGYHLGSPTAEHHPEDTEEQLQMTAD
Structure (SMILES),BI [1],Kd [1] [µM],BI [2],Kd [2] [µM],BI [3],LogKD [3],BI [4],LogKD [4],Kd [5] [µM],BI [5],BI [6],Kd [6] [µM],BI [7],LogKD [7],BI [8],LogKD [8],LogKD [6],LogKD [1],LogKD [2]
CC[C@H](C)[C@H](NC(=O)[C@H](CCC(N)=O)NC(=O)[C@@H](NC(=O)[C@H](Cc1c[nH]cn1)NC(=O)[C@H](CCC(N)=O)NC(=O)[C@H](CC(=O)O)NC(=O)[C@H](CCC(=O)O)NC(=O)[C@H](CC(=O)O)NC(=O)CCC(=O)NCCCOCCOCCOCCCNC(=O)CCCC[C@@H]1SC[C@@H]2NC(=O)N[C@@H]21)[C@@H](C)O)C(=O)N[C@H](C(=O)N[C@@H](CCCCNC(C)=O)C(=O)N[C@H](C(=O)O)C(C)C)[C@@H](C)O [PTEN_Ac],0.445,32.7,0.306,60.7,-0.1,3.605,0.1,3.605,15.3,0.625,0.251,80.6,-0.054,3.605,0.034,3.605,–,–,–
CC[C@H](C)[C@H](NC(=O)[C@H](CCC(N)=O)NC(=O)[C@@H](NC(=O)[C@H](Cc1c[nH]cn1)NC(=O)[C@H](CCC(N)=O)NC(=O)[C@H](CC(=O)O)NC(=O)[C@H](CCC(=O)O)NC(=O)[C@H](CC(=O)O)NC(=O)CCC(=O)NCCCOCCOCCOCCCNC(=O)CCCC[C@@H]1SC[C@@H]2NC(=O)N[C@@H]21)[C@@H](C)O)C(=O)N[C@H](C(=O)N[C@@H](CCCCN)C(=O)N[C@H](C(=O)O)C(C)C)[C@@H](C)O [PTEN_11],0.13,–,0.136,–,-0.07,3.519,0.06,3.519,47.2,0.407,0.071,–,0.021,3.519,0.001,3.519,3.519,–,–
CC[C@H](C)[C@H](NC(=O)[C@H](CCC(N)=O)NC(=O)[C@@H](NC(=O)[C@H](Cc1c[nH]cn1)NC(=O)[C@H](CCC(N)=O)NC(=O)[C@H](CC(=O)O)NC(=O)[C@H](CCC(=O)O)NC(=O)[C@H](CC(=O)O)NC(=O)[C@H](Cc1ccccc1)NC(=O)[C@@H]1CCCN1C(=O)CCC(=O)NCCCOCCOCCOCCCNC(=O)CCCC[C@@H]1SC[C@@H]2NC(=O)N[C@@H]21)[C@@H](C)O)C(=O)N[C@H](C(=O)N[C@@H](CCCCN)C(=O)N[C@H](C(=O)O)C(C)C)[C@@H](C)O [PTEN_13] ({X1-Suc}-PFDEDQHTQITKV-OH),0.089,–,0.07,–,-0.028,–,-0.036,3.826,30.1,0.342,0.044,–,-0.033,–,-0.027,–,3.826,3.826,3.826
CC[C@H](C)[C@H](NC(=O)[C@H](CCC(N)=O)NC(=O)[C@@H](NC(=O)[C@H](Cc1c[nH]cn1)NC(=O)[C@H](CCC(N)=O)NC(=O)[C@H](CC(=O)O)NC(=O)[C@H](CCC(=O)O)NC(=O)[C@H](CC(=O)O)NC(=O)CCC(=O)NCCCOCCOCCOCCCNC(=O)CCCC[C@@H]1SC[C@@H]2NC(=O)N[C@@H]21)[C@@H](C)O)C(=O)N[C@H](C(=O)N[C@@H](CCCNC(=N)N)C(=O)N[C@H](C(=O)O)C(C)C)[C@@H](C)O [PTEN_KR] ({X1-Suc}-DEDQHTQITRV-OH),0.277,62.4,0.176,–,-0.107,3.655,0.116,–,21.2,0.52,0.067,–,0.003,3.655,-0.057,3.655,3.655,–,–
